How the values were obtained:
Test in all cases: spectrophotometric NADH formation at […] nm, cell extract
Format in all cases: biochemical
Conditions in all cases: 0.4 mM NAD+, 5 mM 6-phosphogluconate, 5 mM MgCl2, 50 mM Tris-HCl pH 8.0, 30 C
[1] = biological target: T1, B. japonicum 6pgdh (NAD+-dependent 6-phosphogluconate dehydrogenase) (Bradyrhizobium diazoefficiens, UniProt Q89FE2)
T1 construct: gene blr6759; codon-optimized gene, TPI1 promoter, integrated at GND1 locus of S. cerevisiae gnd1 gnd2 deletion strain IMX706; cell extract
T1 sequence (Q89FE2 entry or part of it): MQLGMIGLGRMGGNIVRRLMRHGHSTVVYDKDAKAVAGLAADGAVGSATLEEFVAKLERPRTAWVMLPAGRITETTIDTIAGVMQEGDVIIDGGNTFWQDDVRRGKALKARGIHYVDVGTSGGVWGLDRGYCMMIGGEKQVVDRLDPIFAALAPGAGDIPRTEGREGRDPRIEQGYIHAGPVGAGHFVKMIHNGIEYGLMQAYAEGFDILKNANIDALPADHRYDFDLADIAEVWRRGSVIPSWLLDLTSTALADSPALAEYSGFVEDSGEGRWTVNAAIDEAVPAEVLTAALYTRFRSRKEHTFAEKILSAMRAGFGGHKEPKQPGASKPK

[2] = biological target: T2, G. oxydans gox1705 (NAD+-preferring 6-phosphogluconate dehydrogenase) (Gluconobacter oxydans, UniProt G5EBD7)
T2 construct: codon-optimized gene, TPI1 promoter, integrated at GND1 locus of S. cerevisiae gnd1 gnd2 deletion strain IMX707; cell extract
T2 sequence (G5EBD7 whole entry): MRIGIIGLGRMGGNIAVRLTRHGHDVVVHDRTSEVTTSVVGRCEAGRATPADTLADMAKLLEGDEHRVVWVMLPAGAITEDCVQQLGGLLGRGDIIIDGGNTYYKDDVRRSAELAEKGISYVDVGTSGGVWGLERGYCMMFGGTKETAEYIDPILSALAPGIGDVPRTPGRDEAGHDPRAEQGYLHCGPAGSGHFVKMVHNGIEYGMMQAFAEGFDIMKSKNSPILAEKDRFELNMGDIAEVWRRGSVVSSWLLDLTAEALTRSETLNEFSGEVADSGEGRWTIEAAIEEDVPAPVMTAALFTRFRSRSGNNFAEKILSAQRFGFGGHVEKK

[3] = biological target: T3, GndA (M. flagellatus NAD+-dependent 6-phosphogluconate dehydrogenase, gndA) (Methylobacillus flagellatus, UniProt Q9L9P8)
T3 construct: codon-optimized gene, TPI1 promoter, integrated at GND1 locus of S. cerevisiae gnd1 gnd2 deletion strain IMX705; cell extract
T3 sequence (Q9L9P8 entry or part of it): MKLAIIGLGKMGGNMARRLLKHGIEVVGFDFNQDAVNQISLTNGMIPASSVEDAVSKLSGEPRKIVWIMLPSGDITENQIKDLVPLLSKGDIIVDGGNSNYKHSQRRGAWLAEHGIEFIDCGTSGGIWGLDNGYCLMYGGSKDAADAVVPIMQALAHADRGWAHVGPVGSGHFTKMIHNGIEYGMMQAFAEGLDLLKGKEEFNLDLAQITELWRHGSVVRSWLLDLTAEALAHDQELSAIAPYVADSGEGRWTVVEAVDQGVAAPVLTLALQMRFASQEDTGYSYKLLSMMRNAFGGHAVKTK

In the case of `NC(=O)c1ccc[n+]([C@@H]2O[C@H](COP(=O)(O)OP(=O)(O)OC[C@H]3O[C@@H](n4cnc5c(N)ncnc54)[C@H](O)[C@@H]3O)[C@@H](O)[C@H]2O)c1` [NAD^+], the “spectrophotometric NADH formation at 340 nm, cell extract” value (“spectrophotometric NADH formation” below) [1] is reported as “expressing bacterial 6-PGDH genes showed high specific activities with NAD^+ as the electron acceptor”, the “spectrophotometric NADH formation” value [2] is reported as “expressing bacterial 6-PGDH genes showed high specific activities with NAD^+ as the electron acceptor” and the “spectrophotometric NADH formation” value [3] is reported as “expressing gndA from M. flagellatus, showed the highest in vitro NAD^+-dependent 6-PGDH activity”.
